According to US9938562B2, “Naphthalene derived chromogenic enzyme substrates” (Glycosynth Limited, priority 2013, dated 2018):
Where a name gives a salt, the structure may show the parent alone.

How the values were obtained:
[1] = tested on: β-D-glucuronidase-positive strains; test: Hydrolysis by glucuronidase-positive strains; format: cell-based
[2] = tested on: Escherichia coli NCTC 10418; test: Agar plate multi-point inoculation, colour; format: cell-based
[3] = tested on: Klebsiella pneumoniae NCTC 9528; test: Agar plate multi-point inoculation, colour; format: cell-based
[4] = tested on: Providencia rettgeri NCTC 7475; test: Agar plate multi-point inoculation, colour; format: cell-based
[5] = tested on: Enterobacter cloacae NCTC 11936; test: Agar plate multi-point inoculation, colour; format: cell-based
[6] = tested on: Serratia marcescens NCTC 10211; test: Agar plate multi-point inoculation, colour; format: cell-based
[7] = tested on: Salmonella typhimurium NCTC 74; test: Agar plate multi-point inoculation, colour; format: cell-based
[8] = tested on: Pseudomonas aeruginosa NCTC 10662; test: Agar plate multi-point inoculation, colour; format: cell-based
[9] = tested on: Yersinia enterocolitica NCTC 11176; test: Agar plate multi-point inoculation, colour; format: cell-based; conditions: Columbia agar, FAC 500 mg/L, substrate 300 mg/L, 37° C. 18 h in air
[10] = tested on: Burkholderia cepacia NCTC 10931; test: Agar plate multi-point inoculation, colour; format: cell-based; conditions: Columbia agar, FAC 500 mg/L, substrate 300 mg/L, 37° C. 18 h in air
[11] = tested on: Acinetobacter baumannii NCTC 19606; test: Agar plate multi-point inoculation, colour; format: cell-based
[12] = tested on: Steptococcus pyogenes NCTC 8306; test: Agar plate multi-point inoculation, colour; format: cell-based
[13] = tested on: Staphylococcus aureus (MRSA) NCTC 11939; test: Agar plate multi-point inoculation, colour; format: cell-based; conditions: Columbia agar, FAC 500 mg/L, substrate 300 mg/L, 37° C. 18 h in air
[14] = tested on: Staphylococcus aureus NCTC 6571; test: Agar plate multi-point inoculation, colour; format: cell-based
[15] = tested on: Staphylococcus epidermidis NCTC 11047; test: Agar plate multi-point inoculation, colour; format: cell-based
[16] = tested on: Listeria monocytogenes NCTC 11994; test: Agar plate multi-point inoculation, colour; format: cell-based
[17] = tested on: Enterococcus faecium NCTC 7171; test: Agar plate multi-point inoculation, colour; format: cell-based
[18] = tested on: Enterococcus faecalis NCTC 775; test: Agar plate multi-point inoculation, colour; format: cell-based
[19] = tested on: Bacillus subtilis NCTC 9372; test: Agar plate multi-point inoculation, colour; format: cell-based
[20] = tested on: Candida albicans ATCC 90028; format: cell-based
[21] = tested on: Candida glabrata NCPF 3943; test: Agar plate multi-point inoculation, colour; format: cell-based
range of microorganisms = test: Agar plate evaluation with a range of microorganisms (hue, diffusion, background); format: cell-based; conditions: agar plates with FAC
[22] = tested on: clinical isolates of E. coli; test: Glucuronide sensitivity screen, agar plates (CPS ID 3 or Columbia agar); format: cell-based
E. cloacae = test: Glucuronide screen, agar plates (CPS ID 3 or Columbia agar); format: cell-based
E. faecium NCTC 7171 = test: as above; format: cell-based; conditions: E. faecium NCTC 7171, agar
E. faecalis NCTC 775 = test: as above; format: cell-based; conditions: E. faecalis NCTC 775, agar
[23] = 100 E. coli strains, agar, 18 h incubation

In the case of COC(=O)C1OC(Oc2cc3ccccc3cc2O)C(O)C(O)C1O [Compound 13, DHN-β-D-glucuronide-6′-methyl ester], the “colour after hydrolysis compared with 12a or 12b” value [1] is reported as “weaker”.

For “DHN-6-sulfonic acid-β-D-galactopyranoside sodium salt [Compound 31]”, the Colour [2] was “+”, the Colour [3] was “−” and the Colour [4] was “+”. For the same compound, the Colour [5] was “+”, the Colour [6] was “−” and the Colour [7] was “−”. The Colour [8] was “−”, the Colour [9] was “−” and the Colour [10] was “−”. For the same compound, the Colour [11] was “−”, the Colour [12] was “−” and the Colour [13] was “−”. For the same compound, the Colour [14] was “−”, the Colour [15] was “−” and the Colour [16] was “−”. For the same compound, the Colour [17] was “−”, the Colour [18] was “−” and the Colour [19] was “−”. For the same compound, the Colour [20] was “−”, the Colour [21] was “−” and the “colour (hue) after hydrolysis” value (range of microorganisms) was “purple to maroon colonies”. For the same compound, the “amount dissolved in water” value was 30 mg.

In the case of O=C(O)[C@H]1O[C@@H](Oc2c[nH]c3cc(Cl)ccc23)[C@H](O)[C@@H](O)[C@@H]1O [Rose-β-D-glucuronide CHA salt, 6-chloro-3-indolyl β-D-glucuronide], the “% Sensitivity” value [22] is reported as 81%, the Negative strains [22, 23] is reported as 19 and the Positive strains [22, 23] is reported as 81. The Colour ([22]; E. coli 260262P, agar) was “Red”, the Colour ([22]; E. coli 260280Z, agar) was “Red” and the Colour ([22]; E. coli 260310H, agar) was “Red”. For the same compound, the Colour ([22]; E. coli 260313A, agar) was “−”, the Colour ([22]; E. coli 260316T, agar) was “−” and the Colour ([22]; E. coli 260327V, agar) was “Red”. For the same compound, the Colour ([22]; E. coli 260330Y, agar) was “Red”, the Colour ([22]; E. coli 260333P, agar) was “−” and the Colour ([22]; E. coli 260345F, agar) was “Red”. The Colour ([22]; E. coli 260348K, agar) was “Red”, the Colour ([22]; E. coli 260354W, agar) was “Red” and the Colour ([22]; E. coli 260364H, agar) was “−”. The Colour ([22]; E. coli 260370C, agar) was “Red”, the Colour ([22]; E. coli 260375E, agar) was “Red” and the Colour ([22]; E. coli 260390B, agar) was “−”. For the same compound, the Colour ([22]; E. coli 260396Z, agar) was “Red”, the Colour ([22]; E. coli 260398Q, agar) was “Red” and the Colour ([22]; E. coli 260399E, agar) was “Red”. For the same compound, the Colour ([22]; E. coli 260400N, agar) was “−”, the Colour ([22]; E. coli 260401Q, agar) was “Red” and the Colour ([22]; E. coli 260402H, agar) was “Red”. The Colour ([22]; E. coli 260404W, agar) was “Red”, the Colour ([22]; E. coli 260405P, agar) was “Red” and the Colour ([22]; E. coli 260406A, agar) was “−”. For the same compound, the Colour ([22]; E. coli 260406Y, agar) was “Red”, the Colour ([22]; E. coli 260407F, agar) was “Red” and the Colour ([22]; E. coli 260408C, agar) was “Red”. For the same compound, the Colour ([22]; E. coli 260411Z, agar) was “Red”, the Colour ([22]; E. coli 260412Q, agar) was “Red” and the Colour ([22]; E. coli 260414H, agar) was “Red”. The Colour ([22]; E. coli 260415Y, agar) was “Red”, the Colour ([22]; E. coli 260416W, agar) was “−” and the Colour ([22]; E. coli 260417P, agar) was “Red”. The Colour ([22]; E. coli 260422Y, agar) was “Red”, the Colour ([22]; E. coli 260424P, agar) was “Red” and the Colour ([22]; E. coli 260425A, agar) was “Red”. For the same compound, the Colour ([22]; E. coli 260426F, agar) was “Red”, the Colour ([22]; E. coli 260428T, agar) was “Red” and the Colour ([22]; E. coli 260431N, agar) was “Red”. For the same compound, the Colour ([22]; E. coli 260432E, agar) was “Red”, the Colour ([22]; E. coli 260433H, agar) was “Red” and the Colour ([22]; E. coli 260434Y, agar) was “Red”. For the same compound, the Colour ([22]; E. coli 260435W, agar) was “Red”, the Colour ([22]; E. coli 260436P, agar) was “Red” and the Colour ([22]; E. coli 260437A, agar) was “Tr. Red”. For the same compound, the Colour ([22]; E. coli 260438F, agar) was “Red”, the Colour ([22]; E. coli 260439C, agar) was “Red” and the Colour ([22]; E. coli 260440S, agar) was “Red”. The Colour ([22]; E. coli 260441G, agar) was “Red”, the Colour ([22]; E. coli 260458Y, agar) was “Red” and the Colour ([22]; E. coli 260459W, agar) was “Red”. For the same compound, the Colour ([22]; E. coli 260463D, agar) was “Red”, the Colour ([22]; E. coli 260464G, agar) was “Red” and the Colour ([22]; E. coli 260471B, agar) was “−”. For the same compound, the Colour ([22]; E. coli 260478N, agar) was “−”, the Colour ([22]; E. coli 260479Q, agar) was “Red” and the Colour ([22]; E. coli 260480M, agar) was “Red”. The Colour ([22]; E. coli 260481J, agar) was “Red”, the Colour ([22]; E. coli 260483R, agar) was “−” and the Colour ([22]; E. coli 260485D, agar) was “Red”. The Colour ([22]; E. coli 260486L, agar) was “Red”, the Colour ([22]; E. coli 260492J, agar) was “Red” and the Colour ([22]; E. coli 260494B, agar) was “Red”. The Colour ([22]; E. coli 260495R, agar) was “−”, the Colour ([22]; E. coli 260497D, agar) was “Red” and the Colour ([22]; E. coli 260502G, agar) was “Red”. For the same compound, the Colour ([22]; E. coli 260503Z, agar) was “Red”, the Colour ([22]; E. coli 260504N, agar) was “Red” and the Colour ([22]; E. coli 260505Q, agar) was “−”. The Colour ([22]; E. coli 260506E, agar) was “Red”, the Colour ([22]; E. coli 260508Y, agar) was “Red” and the Colour ([22]; E. coli 260509W, agar) was “Red”. The Colour ([22]; E. coli 260510R, agar) was “Red”, the Colour ([22]; E. coli 260511X, agar) was “Red” and the Colour ([22]; E. coli 260514G, agar) was “−”. For the same compound, the Colour ([22]; E. coli 260515Z, agar) was “Red”, the Colour ([22]; E. coli 260521S, agar) was “Red” and the Colour ([22]; E. coli 260522Z, agar) was “Red”. The Colour ([22]; E. coli 260532S, agar) was “Red”, the Colour ([22]; E. coli 260533G, agar) was “Red” and the Colour ([22]; E. coli 260536Q, agar) was “Red”. The Colour ([22]; E. coli 260537E, agar) was “−”, the Colour ([22]; E. coli 260538H, agar) was “−” and the Colour ([22]; E. coli 260539Y, agar) was “Red”. For the same compound, the Colour ([22]; E. coli 260541R, agar) was “Red”, the Colour ([22]; E. coli 260545G, agar) was “Red” and the Colour ([22]; E. coli 260547N, agar) was “Red”. For the same compound, the Colour ([22]; E. coli 260548Q, agar) was “Red”, the Colour ([22]; E. coli 260549E, agar) was “Red” and the Colour ([22]; E. coli 260553X, agar) was “−”. For the same compound, the Colour ([22]; E. coli 260554D, agar) was “Red”, the Colour ([22]; E. coli 260555L, agar) was “Red” and the Colour ([22]; E. coli 260563B, agar) was “Red”. For the same compound, the Colour ([22]; E. coli 260564R, agar) was “Red”, the Colour ([22]; E. coli 260578D, agar) was “−” and the Colour ([22]; E. coli 2603121P, agar) was “−”. For the same compound, the Colour (E. cloacae; E. cloacae 260329R, agar) was “−”, the Colour (E. cloacae; E. cloacae NCTC 11936, agar) was “−” and the Colour (E. faecium NCTC 7171) was “−”. The Colour (E. faecalis NCTC 775) was “−”.
